Several values for one entry are separate records, joined by “and”; a condition that tells them apart may be missing. Equal values may be shown once.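 Results reflect a 48-hour exposure of cells in 96-well plates to compound at five concentrations. Here, GI50 denotes the concentration required for 50% inhibition of growth. TGI: concentration producing complete growth inhibition.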
Tests used:
Experiment in all cases: NCI-60 cell line screen, 48 h
COLO 205 colon = system: COLO 205 colon
MDA-MB-435 = system: MDA-MB-435
SW-620 colon = system: SW-620 colon
CAKI-1 renal = system: CAKI-1 renal
UACC-257 melanoma = system: UACC-257 melanoma

SMILES: NC1=CC(C(=O)c2ccncc2)c2nc3ccccc3nc21 (stereo not given)
- TGI (COLO 205 colon): > 100 µM
- TGI (MDA-MB-435): > 100 µM
- TGI (SW-620 colon): > 100 µM
- TGI (CAKI-1 renal): > 100 µM
- TGI (UACC-257 melanoma): > 100 µM

SMILES: NC(C(F)(F)F)(C(F)(F)F)P(=O)(c1ccccc1)c1ccccc1
- TGI (COLO 205 colon): > 100 µM
- TGI (MDA-MB-435): > 100 µM
- TGI (SW-620 colon): > 100 µM
- TGI (CAKI-1 renal): > 100 µM
- TGI (UACC-257 melanoma): > 100 µM

SMILES: N#CC1=C(C#N)/C(=C(\C#N)C(C#N)C#N)N=C1N
- TGI (COLO 205 colon): 57.3 µM
- TGI (MDA-MB-435): 36.7 µM
- TGI (SW-620 colon): > 100 µM
- TGI (CAKI-1 renal): > 100 µM
- TGI (UACC-257 melanoma): 51.7 µM

SMILES: COc1ccc(Nc2nc(N)c(C(=O)c3ccc(OC)cc3)s2)cc1
- TGI (COLO 205 colon): > 100 µM
- TGI (MDA-MB-435): 0.208 µM
- TGI (SW-620 colon): > 37.5 µM
- TGI (CAKI-1 renal): > 48.6 µM
- TGI (UACC-257 melanoma): > 100 µM

SMILES: CO[C@@](c1ccccc1)(c1nc(C#N)c(N)o1)C(F)(F)F
- TGI (COLO 205 colon): > 100 µM
- TGI (MDA-MB-435): > 100 µM
- TGI (SW-620 colon): > 100 µM
- TGI (CAKI-1 renal): > 100 µM
- TGI (UACC-257 melanoma): > 100 µM

SMILES: Cc1ccc(S(=O)(=O)NC(=O)NCC(=O)NCC(=O)O)cc1
- TGI (COLO 205 colon): > 100 µM
- TGI (MDA-MB-435): > 100 µM
- TGI (SW-620 colon): > 100 µM
- TGI (CAKI-1 renal): > 100 µM
- TGI (UACC-257 melanoma): > 100 µM

SMILES: CC1(C)OC(=O)C(C)(C)OC1=O
- TGI (COLO 205 colon): > 100 µM
- TGI (MDA-MB-435): > 100 µM
- TGI (SW-620 colon): > 100 µM
- TGI (CAKI-1 renal): > 100 µM
- TGI (UACC-257 melanoma): > 100 µM

SMILES: COc1ccc2c(c1)N(C(C)=O)CN1C(=O)CCC21 (stereo not given)
- TGI (COLO 205 colon): > 100 µM
- TGI (MDA-MB-435): > 100 µM
- TGI (SW-620 colon): > 100 µM
- TGI (CAKI-1 renal): > 100 µM
- TGI (UACC-257 melanoma): > 100 µM

SMILES: COc1cc2c(cc1OC)C1C(O)C(OC)C=C3CC[N+](C)(C2)C31 (stereo not given)
- TGI (COLO 205 colon): > 100 µM
- TGI (MDA-MB-435): > 100 µM
- TGI (SW-620 colon): > 100 µM
- TGI (CAKI-1 renal): > 100 µM
- TGI (UACC-257 melanoma): > 100 µM

SMILES: CN(C)c1ncnc2c1ncn2C1C=CC(COS(N)(=O)=O)C1 (stereo not given)
- TGI (COLO 205 colon): > 100 µM
- TGI (MDA-MB-435): > 100 µM
- TGI (SW-620 colon): > 100 µM
- TGI (CAKI-1 renal): > 100 µM
- TGI (UACC-257 melanoma): > 100 µM

SMILES: C#CCCOC1(OC)N=NC(C)(C)O1 (stereo not given)
- TGI (COLO 205 colon): > 100 µM
- TGI (MDA-MB-435): > 100 µM
- TGI (SW-620 colon): > 100 µM
- TGI (UACC-257 melanoma): > 100 µM

SMILES: Cc1cc(NC(=O)C(=O)Cc2cnc3ccccc3n2)c(S(=O)(=O)O)cc1Cl
- TGI (COLO 205 colon): > 100 µM
- TGI (MDA-MB-435): > 100 µM
- TGI (SW-620 colon): > 100 µM
- TGI (CAKI-1 renal): > 100 µM
- TGI (UACC-257 melanoma): > 100 µM

SMILES: CC1=NN2C(=O)CC(=O)N=C2S1
- TGI (COLO 205 colon): > 100 µM
- TGI (MDA-MB-435): > 100 µM
- TGI (SW-620 colon): > 100 µM
- TGI (CAKI-1 renal): > 100 µM
- TGI (UACC-257 melanoma): > 100 µM

SMILES: c1ccc([C@@H]2N[C@@]3(CO[Si](c4ccccc4)(c4ccccc4)c4ccccc4)CC[C@H]4CN[C@@H]2[C@H]43)cc1
- TGI (COLO 205 colon): 3.14 µM
- TGI (MDA-MB-435): 20.8 µM
- TGI (SW-620 colon): 11.7 µM
- TGI (CAKI-1 renal): 25.4 µM
- TGI (UACC-257 melanoma): 27.5 µM

SMILES: COC(=O)C(/C(=N/N)C(=O)Nc1cc(Cl)c(Cl)cc1Cl)c1nc2ccc(Cl)cc2[nH]c1=O (stereo not given)
- TGI (MDA-MB-435): > 100 µM
- TGI (SW-620 colon): > 100 µM
- TGI (CAKI-1 renal): > 100 µM
- TGI (UACC-257 melanoma): > 100 µM

SMILES: C=CCNC(=O)/C(Cc1cc(Br)c(OC)c(Br)c1O)=N\O
- TGI (COLO 205 colon): 26 µM
- TGI (MDA-MB-435): 2.69 µM
- TGI (SW-620 colon): 26.4 µM
- TGI (CAKI-1 renal): 33.7 µM
- TGI (UACC-257 melanoma): 27.1 µM

SMILES: CN1CC2=C(NC(=S)NC2c2ccc(Cl)cc2)/C(=C/c2ccc(Cl)cc2)C1 (stereo not given)
- TGI (COLO 205 colon): 33.3 µM
- TGI (MDA-MB-435): 30.1 µM
- TGI (SW-620 colon): 30.3 µM
- TGI (CAKI-1 renal): 32.4 µM
- TGI (UACC-257 melanoma): 43.2 µM

SMILES: CC1=CCC[C@@](C)(O)[C@@H]2C[C@H]3C(CSc4ccccc4)C(=O)O[C@H]3[C@@H](O2)[C@H](C)CCC1 (stereo not given in full)
- TGI (COLO 205 colon): 40.4 µM
- TGI (MDA-MB-435): 72 µM
- TGI (SW-620 colon): 93.2 µM
- TGI (CAKI-1 renal): 64.6 µM
- TGI (UACC-257 melanoma): 39.3 µM

SMILES: O=C1/C(=C/c2ccc(Cl)cc2)NC(=S)N1CN1CCOCC1
- TGI (COLO 205 colon): > 100 µM
- TGI (MDA-MB-435): > 100 µM
- TGI (SW-620 colon): > 100 µM
- TGI (UACC-257 melanoma): > 100 µM

SMILES: O=C1Nc2ccccc2[C@]12C[C@H]2c1ccccn1
- TGI (COLO 205 colon): > 100 µM
- TGI (MDA-MB-435): > 100 µM
- TGI (SW-620 colon): > 100 µM
- TGI (CAKI-1 renal): > 100 µM
- TGI (UACC-257 melanoma): > 100 µM

SMILES: CC(=O)NCC1(c2ccccc2)CCN(CC2COc3ccccc3O2)CC1 (stereo not given)
- TGI (COLO 205 colon): > 100 µM
- TGI (MDA-MB-435): > 100 µM
- TGI (SW-620 colon): > 100 µM
- TGI (CAKI-1 renal): > 100 µM
- TGI (UACC-257 melanoma): > 100 µM

SMILES: Nc1nc(N)nc(-c2cnccn2)n1
- TGI (COLO 205 colon): > 100 µM
- TGI (MDA-MB-435): > 100 µM
- TGI (SW-620 colon): > 100 µM
- TGI (CAKI-1 renal): > 100 µM
- TGI (UACC-257 melanoma): > 100 µM

SMILES: CC(=O)O[C@H]1C(=O)[C@@]2(C)[C@H]([C@H](OC(=O)c3ccc([N+](=O)[O-])cc3)[C@]3(O)C[C@H](OC(=O)[C@H](O)[C@@H](NC(=O)c4ccccc4)c4ccccc4)C(C)=C1C3(C)C)[C@]1(OC(C)=O)CO[C@@H]1C[C@@H]2O
- TGI (COLO 205 colon): > 25 µM
- TGI (MDA-MB-435): > 25 µM
- TGI (SW-620 colon): > 25 µM
- TGI (CAKI-1 renal): > 25 µM
- TGI (UACC-257 melanoma): > 25 µM

SMILES: CC(=O)OCC1OC(n2c3c(c(-c4ccc(Cl)cc4)c(C#N)c2=S)C(=O)CC(C)(C)C3)C(OC(C)=O)C(OC(C)=O)C1OC(C)=O (stereo not given)
- TGI (COLO 205 colon): > 62.8 µM
- TGI (MDA-MB-435): > 69.6 µM
- TGI (SW-620 colon): > 100 µM
- TGI (CAKI-1 renal): > 31.9 µM
- TGI (UACC-257 melanoma): 42.8 µM

SMILES: CCOc1ccc(N/C(=C(/C(Cl)=C(/Cl)NCCO)[N+](=O)[O-])n2nnc3ccccc32)cc1
- TGI (COLO 205 colon): 29.7 µM
- TGI (MDA-MB-435): 35.1 µM
- TGI (SW-620 colon): 39.9 µM
- TGI (CAKI-1 renal): 27.8 µM
- TGI (UACC-257 melanoma): > 100 µM

SMILES: CN(C)CCOC1(Cc2ccc(Cl)cc2Cl)CCC(C(C)(C)C)CC1 (stereo not given)
- TGI (COLO 205 colon): 3.28 µM and 3.23 µM
- TGI (MDA-MB-435): 2.89 µM and 3.18 µM
- GI50 (SW-620 colon): 1.73 µM
- TGI (SW-620 colon): 3.84 µM and 4.78 µM
- GI50 (CAKI-1 renal): 5.18 µM
- TGI (CAKI-1 renal): 4.35 µM and 10.6 µM
- GI50 (UACC-257 melanoma): 1.64 µM
- TGI (UACC-257 melanoma): 3.75 µM and 3.24 µM

SMILES: CC1(C)CCCCCCCCCC(C)(CCCO)C1=O (stereo not given)
- TGI (COLO 205 colon): 30.1 µM
- TGI (MDA-MB-435): 34 µM
- TGI (SW-620 colon): 34.1 µM
- TGI (CAKI-1 renal): 31.6 µM
- TGI (UACC-257 melanoma): 31.8 µM

SMILES: NC(=O)C(=CN1C(=O)CC(=O)NC1=S)C(N)=O
- TGI (COLO 205 colon): > 100 µM
- TGI (MDA-MB-435): > 100 µM
- TGI (SW-620 colon): > 100 µM
- TGI (CAKI-1 renal): > 100 µM
- TGI (UACC-257 melanoma): > 100 µM

SMILES: c1ccc2[nH]c3[nH]c4[nH]c5ccccc5[nH]c4[nH]c3[nH]c2c1
- TGI (COLO 205 colon): > 100 µM
- TGI (MDA-MB-435): > 100 µM
- TGI (SW-620 colon): > 100 µM
- TGI (CAKI-1 renal): > 100 µM
- TGI (UACC-257 melanoma): > 100 µM

SMILES: Cn1cnc2c(OCC3CCCCC3)nc(N)nc21
- TGI (COLO 205 colon): > 100 µM
- TGI (MDA-MB-435): > 100 µM
- TGI (SW-620 colon): > 100 µM
- TGI (CAKI-1 renal): > 100 µM
- TGI (UACC-257 melanoma): > 100 µM

SMILES: COc1cc(/C=C2/SC(c3ccccc3)N(c3ccc(Cl)cc3)C2=O)cc(OC)c1OC (stereo not given)
- TGI (COLO 205 colon): > 42.6 µM
- TGI (MDA-MB-435): 24.2 µM
- TGI (SW-620 colon): > 100 µM
- TGI (CAKI-1 renal): > 100 µM
- TGI (UACC-257 melanoma): > 100 µM

SMILES: CC(=O)n1nc(-c2nc3ccccc3nc2Cl)cc1Cl
- TGI (COLO 205 colon): 33.2 µM
- TGI (MDA-MB-435): 19 µM
- TGI (SW-620 colon): > 100 µM
- TGI (CAKI-1 renal): 21.6 µM
- TGI (UACC-257 melanoma): > 100 µM

Source: PubChem BioAssay (NCI)
